Assay results as given in patent publication US8952060B2, “Composition for preventing hair loss or for stimulating hair growth” (Amorepacific Corporation, priority 2009, dated 2015).

Columns and labels:
Assay type in all cases: in vivo
[1] = system: hair growth at depilated back portions of mice (C57BL/6); assay: Hair growth after subcutaneous injection in depilated mice; details: 3% solution, subcutaneous injection 50 μL every 3-4 days, seven times
Description: According to one embodiment, sodium valproate (VPA) is administered to subjects via subcutaneous injection and then tested for its effect for promoting hair growth. Seven week aged female mice (C57BL/6) are subjected to depilation at their back portions. Next, 3% sodium valproate solution is administered via subcutaneous injection to the left side of each depilated back portion in a unit dose of 50 μL at an interval of 3-4 days seven times in total. Then, the degree of hair growth is observed 1, 16 and 30 days after starting the test. In the test of FIG. 1, sodium valproate is injected subcutaneously to the left portion (marked by a circle) of the back of each mouse.

[2] = system: hair growth at depilated back portions of mice (C57BL/6); assay: Hair growth and hair weight after oral administration in depilated mice; details: for hair growth as compared to the control (FIG. 2): 0.2 g/kg everyday for 5 weeks
Description: According to one embodiment, sodium valproate is administered orally to subjects and then tested for its effect for promoting hair growth. Seven week aged female mice (C57BL/6) are subjected to depilation at their back portions. Next, valproic acid is administered orally to mice of each test group everyday for 5 weeks. The control (mixed solution of distilled water, 1% methyl cellulose and 0.5% Tween 80™) and sodium valproate each are administered in a unit dose of 0.2 g/kg. After the administration, hair growth is observed at an interval of one week. After 5 weeks, hair weight after the depilation is measured.

[3] = system: hair growth at depilated back portions of mice (C57BL/6); assay: Hair growth and hair weight after skin application in depilated mice
Description: According to one embodiment, sodium valproate is administered to subjects via external application to the skin and then tested for its effect for promoting hair growth. Seven week aged female mice (C57BL/6) are subjected to depilation at their back portions. Next, 7.2% sodium valproate is applied to the depilated back portions of mice of each test group twice per day. As a control, a mixed solution of propylene glycol/ethanol/water (5:3:2) is used. After the skin application, hair growth is observed at an interval of one week. After 6 weeks, hair weight after the depilation is measured.

**Q.** Which “degree of hair growth as compared to the control (FIG. 1)” value ([1]; after 16 days, control = right side of back) does the source give for `CCCC(CCC)C(=O)[O-].[Na+]` [sodium valproate] here?
**A.** hair growth is promoted

**Q.** And the “formation of new hair follicles (FIG. 1)” value ([1]; after 30 days)?
**A.** new hair follicles are formed

**Q.** And the “hair growth as compared to the control (FIG. 2)” value [2]?
**A.** delays hair growth

**Q.** And the “hair weight (FIG. 3)” value ([2]; 0.2 g/kg everyday, after 5 weeks, control about 85 mg)?
**A.** 65 mg

**Q.** What about the “hair growth as compared to the control (FIG. 4)” value ([3]; 7.2% skin application twice per day) of the same compound?
**A.** promotes hair growth

**Q.** And the “hair weight (FIG. 5)” value ([3]; 7.2% skin application twice per day, after 6 weeks, control about 35 mg)?
**A.** ≥ 80 mg

**Q.** Which “hair growth as compared to the control (FIG. 2)” value [2] does the source give for `CCCC(CCC)C(=O)O` [valproic acid, 2-propylpentanoic acid] here?
**A.** inhibits hair growth

**Q.** What about the “hair growth, summary statement” value ([3]; transdermal administration (subcutaneous injection or skin application)) of the same compound?
**A.** promotes hair growth
